Measured values: patent US20260200926A1, “TREM2 MODULATORS” (Muna Therapeutics ApS, priority 2022, published 2026)
Counter-ions that a name gives are not always drawn.

Biological target: T1, Human TREM2 (Homo sapiens, UniProt Q9NZC2)
T1 construct: expressed in transfected cells
Experiment: Human TREM2 activity: cellular phosphorylation of Syk (AlphaLISA SureFire Ultra p-SYK) in HEK293/DAP12+TREM2 stable cell line
Type: cell-based
Conditions: for Emax: HEK293, maximal response relative to reference agonist example 1B (remaining examples), read-out: Emax; for EC50: phospho-Syk AlphaLISA signal, HEK293/DAP12+TREM2 cells, concentration giving 50% of maximal response, read-out: EC50
Outline: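 The read-out was p-Syk (Tyr525/526), measured by AlphaLISA in lysates of a stable HEK293/DAP12+TREM2 clone. Cells (10,000/well, plated the day before) received compound for 30 min at 37 °C. Dosing used 8 points in quadruplicate, top 100 μM with 1:6 dilution, 0.5% final DMSO.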

T1 sequence (Q9NZC2 19-230): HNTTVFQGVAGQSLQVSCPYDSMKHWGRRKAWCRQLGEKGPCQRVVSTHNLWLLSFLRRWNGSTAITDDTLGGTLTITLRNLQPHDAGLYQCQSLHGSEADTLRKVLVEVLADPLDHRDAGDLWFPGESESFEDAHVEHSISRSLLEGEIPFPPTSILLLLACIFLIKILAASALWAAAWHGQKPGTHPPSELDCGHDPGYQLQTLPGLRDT
T1 sequence (O43914 22-113 partner): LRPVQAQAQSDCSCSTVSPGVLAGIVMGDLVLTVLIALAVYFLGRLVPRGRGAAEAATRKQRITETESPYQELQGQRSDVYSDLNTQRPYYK

| Emax | EC50 | SMILES |
| --- | --- | --- |
| 75 to 110% | 100 to 1000 nM | Cc1nc2c(-c3ccc(Cl)cc3F)nc(N3CCOC(c4cnn(C5CNC5)c4)C3)nc2c(=O)n1C (centres unmarked) [Example 41, 6-(2-(1-(azetidin-3-yl)-1H-pyrazol-4-yl)morpholino)-8-(4-chloro-2-fluorophenyl)-2,3-dimethylpyrimido[5,4-d]pyrimidin-4 (3H)-one hydrochloride salt] |
| < 75% | 10 to 100 nM | Cc1nc2c(-c3ccc(Cl)cc3F)nc(N3CCOC(c4cnn(C5CN(C)C5)c4)C3)nc2c(=O)n1C (centres unmarked) [Example 42, 8-(4-chloro-2-fluorophenyl)-2,3-dimethyl-6-(2-(1-(1-methylazetidin-3-yl)-1H-pyrazol-4-yl)morpholino)pyrimido[5,4-d]pyrimidin-4 (3H)-one] |
| < 75% | 10 to 100 nM | Cc1nnc(C2CN(c3nc(-c4ccc(Cl)cc4F)c4nc(C)n(C)c(=O)c4n3)CCO2)o1 (centres unmarked) [Example 43, 8-(4-chloro-2-fluorophenyl)-2,3-dimethyl-6-(2-(5-methyl-1,3,4-oxadiazol-2-yl)morpholino)pyrimido[5,4-d]pyrimidin-4(3H)-one] |
| 75 to 110% | 100 to 1000 nM | Cc1nc2c(-c3ccc(Cl)cc3F)nc(N3CCOC(c4ccnn4C)C3)nc2c(=O)n1C (centres unmarked) [Example 44, 8-(4-chloro-2-fluorophenyl)-2,3-dimethyl-6-(2-(1-methyl-1H-pyrazol-5-yl)morpholino)pyrimido[5,4-d]pyrimidin-4(3H)-one] |
| < 75% | 10 to 100 nM | Cc1csc(C2CN(c3nc(-c4ccc(Cl)cc4F)c4nc(C)n(C)c(=O)c4n3)CCO2)n1 (centres unmarked) [Example 45, 8-(4-chloro-2-fluorophenyl)-2,3-dimethyl-6-(2-(4-methylthiazol-2-yl)morpholino)pyrimido[5,4-d]pyrimidin-4(3H)-one] |
| < 75% | 100 to 1000 nM | Cc1n[nH]c(C2CN(c3nc(-c4ccc(Cl)cc4F)c4nc(C)n(C)c(=O)c4n3)CCO2)n1 (centres unmarked) [Example 46, 8-(4-chloro-2-fluorophenyl)-2,3-dimethyl-6-(2-(3-methyl-1H-1,2,4-triazol-5-yl)morpholino)pyrimido[5,4-d]pyrimidin-4(3H)-one] |
| < 75% | 100 to 1000 nM | Cc1nc2c(-c3ccc(Cl)cc3F)nc(N3CCOC(c4cc[nH]n4)C3)nc2c(=O)n1C (centres unmarked) [Example 47, 6-(2-(1H-pyrazol-3-yl)morpholino)-8-(4-chloro-2-fluorophenyl)-2,3-dimethylpyrimido[5,4-d]pyrimidin-4(3H)-one] |
| < 75% | 10 to 100 nM | Cc1nc2c(-c3ccc(Cl)cc3F)nc(N3CCOC(c4nccs4)C3)nc2c(=O)n1C (centres unmarked) [Example 48, 8-(4-chloro-2-fluorophenyl)-2,3-dimethyl-6-(2-(thiazol-2-yl)morpholino)pyrimido[5,4-d]pyrimidin-4(3H)-one] |
| < 75% | > 1000 nM | CNC(=O)C1CN(c2nc(-c3ccc(Cl)cc3F)c3nc(C)n(C)c(=O)c3n2)CCO1 (centres unmarked) [Example 49, 4-(4-(4-chloro-2-fluorophenyl)-6,7-dimethyl-8-oxo-7,8-dihydropyrimido[5,4-d]pyrimidin-2-yl)-N-methylmorpholine-2-carboxamide] |
| < 75% | 10 to 100 nM | Cc1nc(C2CN(c3nc(-c4ccc(Cl)cc4F)c4nc(C)n(C)c(=O)c4n3)CCO2)no1 (centres unmarked) [Example 50, 8-(4-chloro-2-fluorophenyl)-2,3-dimethyl-6-(2-(5-methyl-1,2,4-oxadiazol-3-yl)morpholino)pyrimido[5,4-d]pyrimidin-4(3H)-one] |
| 75 to 110% | > 1000 nM | Cc1nc2c(-c3ccc(Cl)cc3F)nc(N3CCOC(C(=O)N(C)C)C3)nc2c(=O)n1C (centres unmarked) [Example 51, 4-(4-(4-chloro-2-fluorophenyl)-6,7-dimethyl-8-oxo-7,8-dihydropyrimido[5,4-d]pyrimidin-2-yl)-N,N-dimethylmorpholine-2-carboxamide] |
| 75 to 110% | 100 to 1000 nM | COCC1CN(c2nc(-c3ccc(Cl)cc3F)c3nc(C)n(C)c(=O)c3n2)CCO1 (centres unmarked) [Example 52, 8-(4-chloro-2-fluorophenyl)-6-(2-(methoxymethyl)morpholino)-2,3-dimethylpyrimido[5,4-d]pyrimidin-4(3H)-one] |
| 75 to 110% | 100 to 1000 nM | Cc1nc2c(-c3ccc(Cl)cc3F)nc(N3CCOC(CN(C)C)C3)nc2c(=O)n1C (centres unmarked) [Example 53, 8-(4-chloro-2-fluorophenyl)-6-(2-((dimethylamino)methyl)morpholino)-2,3-dimethylpyrimido[5,4-d]pyrimidin-4(3H)-one] |
| < 75% | > 1000 nM | Cc1nc2c(-c3ccc(Cl)cc3F)nc(N3CCOC4(CCCC4)C3)nc2c(=O)n1C [Example 54, 8-(4-chloro-2-fluorophenyl)-2,3-dimethyl-6-(6-oxa-9-azaspiro[4.5]decan-9-yl)pyrimido[5,4-d]pyrimidin-4(3H)-one] |
| < 75% | > 1000 nM | Cc1nc2c(-c3ccc(Cl)cc3F)nc(N3CCOC(C)(c4cnn(C)c4)C3)nc2c(=O)n1C (centres unmarked) [Example 55, 8-(4-chloro-2-fluorophenyl)-2,3-dimethyl-6-(2-methyl-2-(1-methyl-1H-pyrazol-4-yl)morpholino)pyrimido[5,4-d]pyrimidin-4(3H)-one] |
| < 75% | > 1000 nM | Cc1nc2c(-c3ccc(Cl)cc3F)nc(N3CCOC4(CCN(C)CC4)C3)nc2c(=O)n1C [Example 56, 8-(4-chloro-2-fluorophenyl)-2,3-dimethyl-6-(9-methyl-1-oxa-4,9-diazaspiro[5.5]undecan-4-yl)pyrimido[5,4-d]pyrimidin-4(3H)-one] |
| < 75% | > 1000 nM | Cc1nc2c(-c3ccc(Cl)cc3F)nc(N3CCOC(C)(C)C3)nc2c(=O)n1C [Example 57, 8-(4-chloro-2-fluorophenyl)-6-(2,2-dimethylmorpholino)-2,3-dimethylpyrimido[5,4-d]pyrimidin-4(3H)-one] |
| 75 to 110% | 100 to 1000 nM | Cc1nc2c(-c3ccc(Cl)cc3F)nc(N3CCOC(c4ncon4)C3)nc2c(=O)n1C (centres unmarked) [Example 58, 6-(2-(1,2,4-oxadiazol-3-yl)morpholino)-8-(4-chloro-2-fluorophenyl)-2,3-dimethylpyrimido[5,4-d]pyrimidin-4(3H)-one] |
| 75 to 110% | 100 to 1000 nM | COc1ccc(Cn2c(C)nc3c(-c4ccc(Cl)cc4F)nc(N4CCOC(c5cnn(C)c5)C4)nc3c2=O)cc1 (centres unmarked) [Example 59, 8-(4-chloro-2-fluorophenyl)-3-(4-methoxybenzyl)-2-methyl-6-(2-(1-methyl-1H-pyrazol-4-yl)morpholino)pyrimido[5,4-d]pyrimidin-4(3H)-one] |
| < 75% | 100 to 1000 nM | Cc1nc2c(-c3ccc(Cl)cc3F)nc(N3CCOC(c4cnn(C)c4)C3)nc2c(=O)[nH]1 (centres unmarked) [Example 60, 8-(4-chloro-2-fluorophenyl)-2-methyl-6-(2-(1-methyl-1H-pyrazol-4-yl)morpholino)pyrimido[5,4-d]pyrimidin-4 (3H)-one] |
| < 75% | 10 to 100 nM | COCCn1c(C)nc2c(-c3ccc(Cl)cc3F)nc(N3CCOC(c4cnn(C)c4)C3)nc2c1=O (centres unmarked) [Example 61, 8-(4-chloro-2-fluorophenyl)-3-(2-methoxyethyl)-2-methyl-6-(2-(1-methyl-1H-pyrazol-4-yl)morpholino)pyrimido[5,4-d]pyrimidin-4(3H)-one] |
| < 75% | 1 to 10 nM | Cc1nc2c(-c3ccc(Cl)cc3F)nc(N3CC(c4cnn(C)c4)OC(C)(C)C3)nc2c(=O)n1C (centres unmarked) [Example 62, 8-(4-chloro-2-fluorophenyl)-6-(2,2-dimethyl-6-(1-methyl-1H-pyrazol-4-yl)morpholino)-2,3-dimethylpyrimido[5,4-d]pyrimidin-4 (3H)-one] |
| < 75% | 10 to 100 nM | Cc1nc2c(-c3ccc(Cl)cc3F)nc(N3CCC(c4cnn(C)c4)C3)nc2c(=O)n1C (centres unmarked) [Example 63, 8-(4-chloro-2-fluorophenyl)-2,3-dimethyl-6-[3-(1-methyl-1H-pyrazol-4-yl)pyrrolidin-1-yl]-3H,4H-pyrimido[5,4-d][1,3]diazin-4-one] |
| < 75% | 10 to 100 nM | Cc1nc2c(-c3ccc(Cl)cc3F)nc(N3CC[C@@H](Oc4cnn(C)c4)C3)nc2c(=O)n1C [Example 64, (R)-8-(4-chloro-2-fluorophenyl)-2,3-dimethyl-6-(3-((1-methyl-1H-pyrazol-4-yl)oxy)pyrrolidin-1-yl)pyrimido[5,4-d]pyrimidin-4 (3H)-one] |
| < 75% | 10 to 100 nM | COCCn1cc(C2CN(c3nc(-c4ccc(Cl)cc4F)c4nc(C)n(C)c(=O)c4n3)CCO2)cn1 (centres unmarked) [Example 69, 8-(4-chloro-2-fluorophenyl)-6-(2-(1-(2-methoxyethyl)-1H-pyrazol-4-yl)morpholino)-2,3-dimethylpyrimido[5,4-d]pyrimidin-4 (3H)-one] |
| < 75% | > 1000 nM | Cc1nc2c(-c3ccc(F)cc3Cl)nc(N3CCOC(c4cnn(C)c4)C3)nc2c(=O)n1C (centres unmarked) [Example 70, 8-(2-chloro-4-fluorophenyl)-2,3-dimethyl-6-(2-(1-methyl-1H-pyrazol-4-yl)morpholino)pyrimido[5,4-d]pyrimidin-4 (3H)-one] |
| 75 to 110% | 100 to 1000 nM | Cc1nc2c(C3CC4(C3)CC(F)(F)C4)nc(N3CCOC(c4cnn(C)c4)C3)nc2c(=O)n1C (centres unmarked) [Example 72, 8-(6,6-difluorospiro[3.3]heptan-2-yl)-2,3-dimethyl-6-(2-(1-methyl-1H-pyrazol-4-yl)morpholino)pyrimido[5,4-d]pyrimidin-4 (3H)-one] |
| 75 to 110% | 100 to 1000 nM | Cc1nc2c(-c3ccc(Cl)cc3F)nc(N3CCOC(c4cn(C)nn4)C3)nc2c(=O)n1C (centres unmarked) [Example 73, 8-(4-chloro-2-fluorophenyl)-2,3-dimethyl-6-(2-(1-methyl-1H-1,2,3-triazol-4-yl)morpholino)pyrimido[5,4-d]pyrimidin-4 (3H)-one] |
